The subject of series [1] is T. gondii RH-GFP. Description: Kinetics of T. gondii growth, Assay 2 (pre-incubated extracellular tachyzoites). As to conditions: 24 h after infection. In kind it is cell-based, Toxoplasma gondii. The procedure:
(§1) Kinetics of T. gondii growth: The effect of 12b and drugs on kinetics of T. gondii RH-GFP growth was performed as follows: 1 × 10^4 per well of Hs27 cells were seeded on black, 96-well, tissue culture-treated plates with optical bottoms in DMEM cell culture medium.
Assay 2—After 72 h of incubation, the medium was removed and DMEM without phenol red with 3% HIFBS, was added. In the new 96-well, tissue culture-treated plates 2 × 10^5 per well of tachyzoites of the RH strain were added and treated for 3, and 6 h with the compound 12b and drugs (diluted in the DMEM without phenol red medium) at 37 °C. Then tachyzoites were wash out three times in DPBS, resuspended in DMEM without phenol red medium with 3% HIFBS, and finally 1 × 10^5 per well of tachyzoites were added to the Hs27 cells.
The plates were read with covered lids, and both excitation (475 nm) and emission (509 nm) from the bottom using multimode microplate reader SpectraMax® i3. Additionally, fluorescence measurement was performed every 24 h. The plates were incubated at 37 °C with 5% of CO2. The results were expressed as mean fluorescent intensity (MFI). The initial value for 1 × 10^5 of T. gondii RH-GFP was 37,000 MFI (log 4.57). The lower limit of detection was 1000 MFI (log 3.0). Data presented as a logarithm of mean fluorescence intensity (logMFI) on concentration and time dependent curves. […]

Series [2] has as its system T. gondii RH-GFP. Description: microbe, parasite or virus in culture. In kind it is cell-based, Toxoplasma gondii. The procedure: Cell and parasite culture: The Hs27 (human foreskin fibroblast) (ATCC® CRL-1634™) (ATCC, Manassas, VA, USA) were culturing in DMEM (Dulbecco’s modified Eagle’s medium-ATCC® 30-2002™, ATCC) supplemented with 10% fetal bovine serum (fetal bovine serum, ATCC® 30-2020™, ATCC), 100 I.U./mL penicillin and 100 μg/mL streptomycin (penicillin-streptomycin solution ATCC® 30-2300™, ATCC). Cells were trypsinized (Trypsin-EDTA Solution ATCC® 30-2101™, ATCC) twice a week and seeded at a density of 1 × 10^6 per T25 cell culture flask and incubated in a 37 °C and 5% CO2 to achieve a confluent monolayer. The RH strain of Toxoplasma gondii (RH-GFP ATCC® 50940™, ATCC, highly virulent, haplogroup first, expression of green fluorescent protein) was maintained as tachyzoites, in parasite culture medium, which contains DMEM medium with 3% HIFBS (heat-inactivated FBS; 1 h in 56 °C). Infected tissue culture cells were incubated in a 37 °C and 5% CO2.
After 72 h of incubation, the medium was removed and then 1 × 10^5 per well of tachyzoites of the RH strain were added to the cell monolayers, in DMEM without phenol red with 3% HIFBS. One hour later, the compounds and drugs dilutions in the DMEM without phenol red medium were added to the Hs27 cells with T. gondii. Concentration of the compounds below cytotoxic concentration (<CC30), sulfadiazine 0–10,000 μM and trimethoprim, pyrimethamine and atovaquone 0–200 μM. After a subsequent 96 h of incubation, the plates were read with covered lids, and both excitation (475 nm) and emission (509 nm) from the bottom using multimode microplate reader SpectraMax® i3. The results were expressed as mean fluorescent intensity (MFI) and transformed to the percentage of viability compared to untreated cells. Finally, the inhibitory concentrations for 50% inhibition of T. gondii proliferation (IC50) were calculated. All experiments were performed in triplicate.
Graphs and statistical analyses: Statistical analyses and graphs were performed using GraphPad Prism version 9.0.0 for macOS (GraphPad Software, San Diego, CA, USA). […] Additionally, a relationship between cytotoxicity and antiparasitic activity were calculated as the ratio of the 30% cytotoxic concentration (CC30) to the 50% antiparasitic concentration (IC50) and presented as the selectivity index (SI).

The subject of series [3] is tachyzoites of the RH-GFP strain. Description: Influence of compounds during Toxoplasma growth, Assay B (intracellular proliferation). In kind it is cell-based, Toxoplasma gondii. As to conditions: 3 h infection without compound, washed, 24 h with compound at IC50. The procedure: (§2) Influence of Compounds during Toxoplasma Growth (Assay A and B): Hs27 cells were cultured on Lab-Tek™ 4-well Chamber Slides (Nunc, Thermo Fisher Scientific, Waltham, MA, USA) (5 × 10^4 cells/500 μL per well).
Assay B—after 48 h, the medium was removed and then 5 × 10^5/500 µL/well tachyzoites of the RH-GFP strain were added to the cell monolayers, in parasite culture medium for 3 h.
(§3) In both assays as the controls, Hs27 cells were infected, but not treated. After subsequent 24 h of incubation (Assay A and B), the slides were washed with sterile PBS, fixed with formaldehyde solution (252549, Sigma-Aldrich), 3.7% in PBS for 20 min and stained with DAPI for 10 min (1 mg/mL, ThermoFisher Scientific). Microscopic analysis of 100 cells in turn, comprised of counting the infected cell ratio and tachyzoites per each parasitophorous vacuoles of infected cell, was performed using a fluorescent microscope (Axio Scope.A1, Carl Zeiss, Jena, Germany) at a magnification ×1000. For image processing ZEISS ZEN Microscope Software version 3.1 was used. Three independent experiments on triplicate chamber slides using the same conditions for both assays were performed.

Series [4] deals with T. gondii RH-GFP. Description: Kinetics of T. gondii growth, Assay 1 (intracellular tachyzoites). In kind it is cell-based, Toxoplasma gondii. The following applies: for effect on the kinetics of T. gondii growth: Assay 1 and Assay 2, Figure 12. How it is done:
as §1
Assay 1—After 72 h of incubation, the medium was removed and then 1 × 10^5 per well of tachyzoites of the RH strain were added to the cell monolayers, in DMEM without phenol red with 3% HIFBS. One hour later, the compound 12b and drugs dilutions in the DMEM without phenol red medium were added to the Hs27 cells with T. gondii.
The plates were read with covered lids, and both excitation (475 nm) and emission (509 nm) from the bottom using multimode microplate reader SpectraMax® i3. Additionally, fluorescence measurement was performed every 24 h. The plates were incubated at 37 °C with 5% of CO2. The results were expressed as mean fluorescent intensity (MFI). The initial value for 1 × 10^5 of T. gondii RH-GFP was 37,000 MFI (log 4.57). The lower limit of detection was 1000 MFI (log 3.0). Data presented as a logarithm of mean fluorescence intensity (logMFI) on concentration and time dependent curves. All experiments were performed in triplicate.

For series [5], the system named is tachyzoites of the RH-GFP strain. As to the kind of experiment: Influence of compounds during Toxoplasma growth, Assay A (invasion). The series is classed as cell-based, Toxoplasma gondii. The procedure:
as §2
Assay A—after 48 h, the medium was removed and then 5 × 10^5/500 µL/well tachyzoites of the RH-GFP strain were added to the cell monolayers, in parasite culture medium with the selected compounds at IC50 concentration: 2b, 5b, 8b, 11b or 12b, for 3 h. Then, the cells were washed to remove extracellular parasites and parasite culture medium (without any compounds) was added for 24 h.
as §3

The subject of series [6] is Hs27 (human foreskin fibroblast). Description: Cytotoxicity assay (MTT). The series is classed as cell-based. The following applies: 24 h treatment.
The next series deals with T. gondii. As to conditions: values from the earlier paper; ref [25]; cited from earlier work.
Where [7] appears, read: Toxoplasma gondii, HS27, 96 h; read-out: IC50 (50% inhibition of T. gondii proliferation).
Setting [8] is: ratio of CC30 (Hs27) to IC50 (T. gondii); 1b–12b and positive controls.
The mark [9] stands for this setting: compared to non-treated host cells, compound at IC50 concentration, assay not named in abstract.
Where [10] appears, read: compound at IC50 present 3 h during infection, washed, 24 h free medium, vs non-treated.
The mark [11] stands for this setting: Toxoplasma gondii, HS27, 96 h, read-out: IC50 (50% inhibition of T. gondii proliferation).

Consider 5 compounds from publication PMC8145641 (Cells, 2021).

Values after ≈ are worked out from the molar mass of the structure shown. Like-named read-outs stand apart in the source and are kept apart here.

As usually defined, the inhibition is the relative decrease from the control value, in per cent. Low values mean a weak effect, high ones a strong effect. In the case of `Cc1nc[nH]c1-c1nnc(Nc2ccc(I)cc2)s1` [12b], the “reduction of the number of newly formed parasites in Hs27 host cells” value in the series on T. gondii RH-GFP [1] (3 h pre-incubation of tachyzoites) is 80%. Also, the “reduction of the number of newly formed parasites in Hs27 host cells” value in the series with T. gondii RH-GFP [1] (6 h pre-incubation of tachyzoites) is listed as 89%. Besides, the IC50 in the series with T. gondii RH-GFP [2] (setting [7]) was 4.7 µg/mL (≈ 12.3 µM). Besides, the “SI (selectivity index, CC30/IC50)” value with T. gondii RH-GFP [2] (setting [8]) came to 20.89. In addition, in series [3], the “number of intravacuolar tachyzoites (Assay B)” value is reported as “significant reduction”, the “percentage of infected cells (Assay B)” value was “still the same” and the “size of parasitophorous vacuole (Assay B)” value is “significant reduction”. In addition, the inhibition at 250 µM in the series with T. gondii RH-GFP [4] (Toxoplasma gondii, Assay 1, 250 µM (95.50 µg/mL), first 24 h post-infection, maintained for the next 72 h) is 97%. In series [5] (setting [9]), the “reduction in number of tachyzoites per vacuole” value was 93% and the “reduction in the percentage of infected host cells” value amounted to 44%. Moreover, in series [5] (setting [10]), the “number of tachyzoites per vacuole (Assay A)” value is “significant reductions” and the “percentage of infected cells (Assay A)” value is recorded as “significant reductions”. For the same compound, the “CC30 (cytotoxic concentration causing 30% of cells proliferation inhibition)” value in series [6] turned out to be 98.18 µg/mL.
Regarding `COc1cc(Cc2cnc(N)nc2N)cc(OC)c1OC` [Trimethoprim (TRI), Trimethoprim, reference compound], the IC50 with T. gondii RH-GFP [2] (setting [11]) was determined as 14.8 µg/mL (≈ 50.9 µM). For the same compound, in the series on T. gondii RH-GFP [2] (setting [8]), the “SI (selectivity index, CC30/IC50)” value came to 1.20. Further, the “effect on the kinetics of T. gondii growth” value (from here on “effect on the kinetics”) with T. gondii RH-GFP [4] is on record as “only moderately slow down the proliferation of tachyzoites”. Further, in the series with T. gondii, the “IC50 (50% inhibition of T. gondii proliferation)” value was 12.13 µg/mL. Also, in series [6], the “CC30 (cytotoxic concentration causing 30% of cells proliferation inhibition)” value worked out at 17.78 µg/mL.
Regarding `Nc1ccc(S(=O)(=O)Nc2ncccn2)cc1` [Sulfadiazine (SUL), Sulfadiazine, reference compound], the IC50 in the series with T. gondii RH-GFP [2] (setting [11]) amounted to 1250 µg/mL (≈ 5010 µM). Also, the “SI (selectivity index, CC30/IC50)” value in the series on T. gondii RH-GFP [2] (setting [8]) is 1.78. The “effect on the kinetics” value with T. gondii RH-GFP [4] was “only moderately slow down the proliferation of tachyzoites”. Further, the “IC50 (50% inhibition of T. gondii proliferation)” value in the series on T. gondii is on record as 2721.45 µg/mL. Moreover, the “CC30 (cytotoxic concentration causing 30% of cells proliferation inhibition)” value in series [6] is reported as 2230.61 µg/mL.
For `O=C1C(O)=C([C@H]2CC[C@H](c3ccc(Cl)cc3)CC2)C(=O)c2ccccc21` [Atovaquone (ATO), Atovaquone, reference compound], in the series on T. gondii RH-GFP [2] (setting [7]), the IC50 was determined as 0.24 µg/mL (≈ 0.654 µM). In addition, the “SI (selectivity index, CC30/IC50)” value in the series with T. gondii RH-GFP [2] (setting [8]) worked out at 227.56. In the series with T. gondii RH-GFP [4], the “effect on the kinetics” value is “only moderately slow down the proliferation of tachyzoites”. In addition, the “CC30 (cytotoxic concentration causing 30% of cells proliferation inhibition)” value in series [6] was 54.26 µg/mL.
`CCc1nc(N)nc(N)c1-c1ccc(Cl)cc1` [Pyrimethamine (PYR), Pyrimethamine, reference compound]: in the series on T. gondii RH-GFP [2] (setting [11]), the IC50 came to 2.86 µg/mL (≈ 11.5 µM). For the same compound, the “SI (selectivity index, CC30/IC50)” value in the series on T. gondii RH-GFP [2] (setting [8]) stood at 15.85. The “effect on the kinetics” value in the series on T. gondii RH-GFP [4] was “only moderately slow down the proliferation of tachyzoites”. For the same compound, in series [6], the “CC30 (cytotoxic concentration causing 30% of cells proliferation inhibition)” value stood at 45.26 µg/mL.
